Values joined by “and” are separate entries in the source; they are usually repeats but may differ in a detail not shown here. Identical values can stand only once. Marks after values point to notes of the source that are not given here.
Assays:
[1] = Solubility in D2O by 1H NMR; format: physicochemical; settings: Me2SO2 internal standard, T = 21 °C
Method: (§1) The solubility of the complexes in D2O was assessed using ^1H NMR spectroscopy (see Table 1 and the Experimental Section for details). […] Data from the literature for the related nonfunctionalized complexes [2′,3′]CF3SO3 are compiled in Table 1 for comparison.[11] The octanol–water partition coefficients (Log Pow) were measured using a UV–vis method and fall within the −0.2 to +1.2 range (Table 1). […] For instance, Log Pow values of 1.07 and 0.65 are obtained for the geometric isomers [9]CF3SO3 and [10]CF3SO3, respectively.

[2] = Octanol–water partition coefficient (shake-flask, UV–vis); format: physicochemical; settings: T = 21 °C
Method: as §1, with “respectively. […]” for “respectively.”
Determination of partition coefficients (Log P ow)
Partition coefficients ( Pow; IUPAC: K D partition constant, 7,8 defined as Pow = corg/caq, where corg and caq are the molar concentrations of the selected compound in the organic and aqueous phases, respectively, were determined by the shake-flask method and UV-Vis measurements. 9 Values of Log Pow for diiron complexes are compiled in Table 2. All the operations were carried out at 21±1 °C. De -ionised water and 1-octanol were mixed and vigorously stirred for 24 hours at room temperature to allow saturation of both phases, then separated by centrifugation and used for the following experiments. A solution of the selected Fe compound in the organic phase (V = 5 mL) was prepared and its UV-Vis spectrum was recorded. An aliquot of the solution (Vorg = 1.5 mL) was then transferred into a test tube and the aqueous phase (Vorg = Vaq = 1.5 mL) was added. The mixture was vigorously stirred for 20 minutes and the resulting emulsion was centrifuged (5000 rpm, 10’). […]
the organic phase was recorded. The procedure was repeated three times for each compound. The partition coefficient was then calculated as PPow = AorgA0,org − Aorg, where A0,org and Aorg are the absorbance values in the organic phase, respectively before and after mixing with the aqueous phase. 9 UV-Vis measurements were carried out using 1 cm PMMA cuvettes. The wavelength of the maximum absorption of each compound was used for UV-Vis quantification.

[3] = Stability in D2O/DMSO at 37 °C by 1H NMR; format: physicochemical; settings: 24 h at 37 °C
Method: Conversely, [3–7]CF3SO3, containing either {Aryl–OCOAsp} or {Aryl-NHCOAsp} moieties, were stable under the same conditions. […] Complete conversion into the bis-hydroxide [8^2OH]^+ was achieved within 72 h. Similarly, [9,10]CF3SO3 undergo activation of the {C–Cl} bonds to give mixtures of the partially Cl/OH substituted species [9^OH]^+ and [10^OH]^+ and the fully substituted species [9^2OH]^+ and [10^2OH]^+.

[4] = system: Human Ovarian Carcinoma (A2780) cell line; experiment: MTT cytotoxicity, A2780; format: cell-based; settings: for IC50: 72 h exposure, MTT, mean ± SD
Text: (§2) Human ovarian carcinoma (A2780 and A2780cisR) cell lines were obtained from the European Collection of Cell Cultures. The Human Embryonic Kidney 293T (HEK 293T) cell line was obtained from the ATCC (Sigma, Buchs, Switzerland). Penicillin–streptomycin, RPMI 1640 GlutaMAX (where RPMI = Roswell Park Memorial Institute), and DMEM GlutaMAX media (where DMEM = Dulbecco’s modified Eagle medium) were obtained from Life Technologies, and fetal bovine serum (FBS) was obtained from Sigma. The cells were cultured in RPMI 1640 GlutaMAX (A2780 and A2780cisR) and DMEM GlutaMAX (HEK 293T) media containing 10% heat-inactivated FBS and 1% penicillin–streptomycin at 37 °C and CO2 (5%). The A2780cisR cell line was routinely treated with cisplatin (2 μM) in the media to maintain cisplatin resistance. The cytotoxicity was determined using the 3-(4,5-dimethyl-2-thiazolyl)-2,5-diphenyl-2H-tetrazolium bromide (MTT) assay.[42] Cells were seeded in flat-bottomed 96-well plates as a suspension in a prepared medium (100 μL aliquots and approximately 4300 cells/well) and preincubated for 24 h. Stock solutions of compounds were prepared in DMSO and were diluted in the medium. The solutions were sequentially diluted to give a final DMSO concentration of 0.5% and a final compound concentration range of 0–200 μM. Cisplatin was tested as a positive (0–100 μM) control. The compounds were placed in the preincubated 96-well plates in 100 μL aliquots, and the plates were incubated for a further 72 h. MTT (20 μL, 5 mg/mL in Dulbecco’s phosphate buffered saline) was placed in the cells, and the plates were incubated for a further 4 h. The culture medium was aspirated, and the purple formazan crystals, formed by the mitochondrial dehydrogenase activity of vital cells, were dissolved in DMSO (100 μL/well). The absorbance of the resulting solutions, directly proportional to the number of surviving cells, was quantified at 590 nm using a SpectroMax M5e multimode microplate reader (using SoftMax Pro software, version 6.2.2). The percentage of surviving cells was calculated from the absorbance of wells corresponding to the untreated control cells. The reported IC50 values are based on the means from two independent experiments, each comprising four tests per concentration level.

[5] = system: Human Ovarian Carcinoma Cisplatin Resistant (A2780cisR) cell line; experiment: MTT cytotoxicity, A2780cisR; format: cell-based; settings: 72 h exposure, mean ± SD
Text: as §2

[6] = system: Human Embryonic Kidney 293T (HEK 293T) cell line; experiment: MTT cytotoxicity, HEK 293T; format: cell-based; settings: 72 h exposure, mean ± SD
Text: as §2

[7] = system: A2780 cells; experiment: Intracellular ROS production, DCFH-DA assay; format: cell-based, human; settings: for ROS production compared to H2O2 positive control: 10 μM compound vs H2O2 100 μM, 24 h; for intracellular ROS levels: 10 μM, up to 24 h, DCFH-DA fluorescence
Method: In order to shed light on the possible mechanism of action of the biofunctionalized diiron complexes, a series of complementary studies were performed. It was previously shown that the diiron vinyliminium structural motif induces ROS production, possibly associated with more than one mechanism: (1) monoelectron reduction of the complex favored by its net cationic charge; (2) fragmentation into a monoiron derivative and atomic iron; […] After overnight incubation, the cells were treated following the manufacturer’s protocol. […] Stock solutions of compounds were prepared as described above; cells incubated with equal amounts of DMSO in supplemented RPMI were used as a control. The fluorescence was measured up to 24 h with an excitation wavelength of 485 nm and with a 535 nm emission filter by Multilabel Counter (PerkinElmer, Waltham, MA, USA). The measurements were performed in triplicate, and results were reported as mean ± SD. Statistical differences were examined using one-way analysis of variance (ANOVA), and a Tukey test was used for post hoc analysis.

## [Fe2Cp2(CO)(μ-CO){μ-η^1:η^3-Cγ(3-C6H4OC(=O)C6H4OC(=O)Me)CβHCαNMe(Xyl)}]CF3SO3 [[4]CF3SO3]
[1]
  solubility: <1 × 10^–4 mol L^–1
[2]
  Log Pow: 1.06 ± 0.04
[3]; D2O/DMSO 2/1 v/v
  stability (%), residual percent of complex: 59%
[4]
  IC50: 2.8 ± 0.4 µM
[5]
  IC50: 2.6 ± 0.4 µM
[6]
  IC50: 3.8 ± 0.7 µM
[7]
  ROS production compared to H2O2 positive control: ROS production higher than that recorded for H2O2
  intracellular ROS levels: Significant intracellular ROS levels

## [Fe2Cp2(CO)(μ-CO){μ-η^1:η^3-Cγ(3-C6H4NHC(=O)(CH2)3C6H4N(CH2CH2Cl)2)CβHCαNMe2}]CF3SO3 [[9]CF3SO3]
[1]
  solubility: <1 × 10^–4 mol L^–1
[2]
  Log Pow: 1.07 and 1.07 ± 0.05
[3]; D2O/DMSO 1/1 v/v
  stability (%), total percentage of diiron complexes with a chlorambucil-like group: 88 ^b %
[4]
  IC50: 1.8 ± 0.3 µM
[4]; HEK 293T relative to A2780
  selectivity (SI): 5
[5]
  IC50: 3.8 ± 0.3 µM
[6]
  IC50: 9 ± 3 µM
[7]
  ROS production compared to H2O2 positive control: ROS production higher than that recorded for H2O2
  intracellular ROS levels: Significant intracellular ROS levels

Reference: paper PMC8397425, “A Strategy to Conjugate Bioactive Fragments to Cytotoxic Diiron Bis(cyclopentadienyl) Complexes” (Organometallics, 2021)
